Consider three compounds from patent publication US20230226089A1, “METHODS AND COMPOSITIONS FOR TREATING DISEASES ASSOCIATED WITH SENESCENCE” (Atropos Therapeutics, Inc., priority 2019, published 2023).

For one test, the system named is HGPS fibroblasts. Description: Senescent cells (ATRX foci vs nuclear area) in progeria patient fibroblasts. The class given is cell-based, human. As for the experimental part:
Normal diploid fibroblasts (NDF) and fibroblasts from a patient with premature aging syndrome (HGPS) were used to model human skin and to determine the effect of calcitriol on senescence in these cells. Calcitrol, a synthetic version of Vitamin D3, can reverse some symptoms of progeria. To assess the effect of calcitrol on senescence NDF and HGPS fibroblasts were cultured and treated with 0.5 μM calcitriol for up to 10 days. Cells were then stained for SA-β-gal. FIG. 11A and FIG. 11B show representative images of SA-β-gal negative and positive cells respectively. […] This experiment was repeated at least three times using different passages, a representative similarly passaged experiment is shown. […] The horizontal line demarcates the 90th percentile in ATRX foci number, a stringent definition of the senescent state. The vertical line demarcates the 70th percentile of nuclear area. Cells in the upper right quadrant are senescent (ATRX^highNV^large). […]
The natural extracts were also tested on fibroblast cells as described in Example 4. NDF and HGPS fibroblasts were treated with the natural product extracts for 7 days and then assessed for ATRX foci number, cell size and cell number, as indicated in the experimental design in FIG. 19. […] The data shown is representative of at least two different experiments for each mixture analyzed at multiple doses and multiple times.

Another test concerns LS8817^TetONFMDM2 cells. Description: SA-β-gal positive cells in LS8817 TetON FLAG-MDM2 cells. The class given is cell-based. As for the experimental part: The ability of tipifarnib to induce senescence was confirmed in the LS8817^TetONFMDM2 cells used in Example 2. LS8817^TetONFMDM2 cells were treated with either doxycycline alone for 8 days (DOX, black), doxycycline for three days followed by […] of 10 μg/ml doxycycline and 0.2 μM palbociclib (PD+DOX, Brown), or doxycycline for two days followed by three days of doxycycline and palbociclib followed by five days of doxycycline+palbociclib+0.1 μM tipifarnib (PD+DOX->tipi, green). ATRX foci and nuclear size were evaluated as describe previously. […] ATRX foci are shown in green, and DAPI staining in blue. […] The cells treated with 3 days of doxycycline and palbociclib followed by 5 days of tipifarnib had SA-β-gal in about 60% of cells compared to the cells treated with doxycycline and palbociclib for 8 days which had SA-β-gal in less than 10% of cells. Treatment with tipifarnib caused a greater than 6-fold increase in the number of senescent cells.

Each structure is given as a SMILES string.

For the compound `C=C1/C(=C\C=C2/CCC[C@]3(C)[C@@H]([C@H](C)CCCC(C)(C)O)CC[C@@H]23)C[C@@H](O)C[C@@H]1O` [calcitriol], the “accumulation of senescent cells (ATRX foci number, nuclear size distribution)” value in the test on HGPS fibroblasts (0.5 μM calcitriol up to 10 days) is listed as “decreased the accumulation of senescent cells”. The “percentage of senescent cells (ATRX high, large nuclear area quadrant)” value in the test on HGPS fibroblasts (HGPS cells, treated 7 days, about 10% without treatment) is reported as “about 0%”.
In the case of `Cn1cncc1[C@@](N)(c1ccc(Cl)cc1)c1ccc2c(c1)c(-c1cccc(Cl)c1)cc(=O)n2C` [tipifarnib], the “cells positive for SA-β-gal” value in the test with LS8817^TetONFMDM2 cells (3 days doxycycline and palbociclib followed by 5 days tipifarnib) is “about 60%”. Besides, in the test with LS8817^TetONFMDM2 cells (tipifarnib added vs doxycycline and palbociclib 8 days), the “increase in the number of senescent cells” value is reported as “greater than 6 fold”.
`CC(=O)c1c(C)c2cnc(Nc3ccc(N4CCNCC4)cn3)nc2n(C2CCCC2)c1=O` [palbociclib]: the “cells positive for SA-β-gal” value in the test on LS8817^TetONFMDM2 cells (doxycycline and palbociclib for 8 days) is listed as “less than 10%”. Further, in the test on LS8817^TetONFMDM2 cells (palbociclib alone (without doxycycline)), the “cells SA-β-gal positive” value is “about 80%”.
